target: T1, SF9 affinity purified rat FPT (Rattus norvegicus, UniProt Q02293+Q04631); assay: PFT (FPT) inhibitory activity assay, radiolabeled farnesyl pyrophosphate and biotinyl peptide, streptavidin beads; assay type: biochemical; settings: HEPES buffer pH 7.4, 30° C., 30 minutes; read-out: FTase IC50
T1 construct: made in house; host or cells: Sf9 insect cells
Method in brief: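 Rat FPT expressed in SF9 cells was incubated 30 minutes at 30° C. with compound (in 10% DMSO), radiolabeled farnesyl pyrophosphate and biotinylated peptide. Buffer: HEPES pH 7.4, ZnCl2 20 μM, MgCl2 and DTT 5 mM each, 0.1% PEG 8000, 5 mM potassium phosphate (also run without phosphate). Product captured on streptavidin beads in magnesium acetate/H3PO4 stop buffer.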

IC50 [nM]	Compound
7	O=C(NCCO)c1cccc(S(=O)(=O)Cc2c(O[C@H](Cn3ccnc3)c3ccccc3)ccc3c2CCCC3=O)c1 [Compound 176, N-(2-Hydroxyethyl)-3-{[(2-{[(1S)-2-(1H-imidazol-1-yl)-1-phenylethyl]oxy}-5-oxo-5,6,7,8-tetrahydro-1-naphthalenyl)methyl]sulfonyl}benzamide]
30	O=C(O)CCNC(=O)c1ccc(S(=O)(=O)Cc2c(O[C@H](Cn3ccnc3)c3ccccc3)ccc3c2CCCC3=O)cc1 [Compound 166, N-4-{[(2-{[(1S)-2-(1H-Imidazol-1-yl)-1-phenylethyl]oxy}-5-oxo-5,6,7,8-tetrahydro-1-naphthalenyl)methyl]sulfonyl}benzoyl-β-alanine]
0.25	O=C(NC(CO)CO)c1cccc(SCc2c(O[C@H](Cn3ccnc3)c3ccccc3)ccc3c2CCCC3=O)c1 [Compound 234, N-[2-Hydroxy-1-(hydroxymethyl)ethyl]-3-{[(2-{[(1S)-2-(1H-imidazol-1-yl)-1-phenylethyl]oxy}-5-oxo-5,6,7,8-tetrahydro-1-naphthalenyl)methyl]sulfanyl}benzamide]
0.2	CC[C@H](C)CNC(=O)c1cccc(SCc2c(O[C@H](Cn3ccnc3)c3ccccc3)ccc3c2CCCC3=O)c1 [Compound 252, 3-{[(2-{[(1S)-2-(1H-Imidazol-1-yl)-1-phenylethyl]oxy}-5-oxo-5,6,7,8-tetrahydro-1-naphthalenyl)methyl]sulfanyl}-N-[(2S)-2-methylbutyl]benzamide]
0.2	O=C(NC1CC1)c1cccc(SCc2c(O[C@H](Cn3ccnc3)c3ccccc3)ccc3c2CCCC3=O)c1 [Compound 227, N-Cyclopropyl-3-{[(2-{[(1S)-2-(1H-imidazol-1-yl)-1-phenylethyl]oxy}-5-oxo-5,6,7,8-tetrahydro-1-naphthalenyl)methyl]sulfanyl}benzamide]
8	CNC(=O)c1cccc(S(=O)(=O)Cc2c(O[C@H](Cn3ccnc3)c3ccccc3)ccc3c2CCCC3=O)c1 [Compound 190, 3-{[(2-{[(1S)-2-(1H-imidazol-1-yl)-1-phenylethyl]oxy}-5-oxo-5,6,7,8-tetrahydro-1-naphthalenyl)methyl]sulfonyl}-N-methylbenzamide]
1	CCCCC(Cn1ccnc1)Oc1ccc2c(c1CS(=O)(=O)c1ccccc1)CCCC2=O (stereo not drawn) [Compound 63m, 6-{[1-(1H-Imidazol-ylmethyl)pentyl]oxy}-5-[(phenylsulfonyl)methyl]-3,4-dihydro-1(2H)-naphthalenone]
4	COC(=O)c1ccc(SCc2c(O[C@H](Cn3ccnc3)c3ccccc3)ccc3c2CCCC3=O)cc1 [Compound 157, Methyl 4-{[(2-{[(1S)-2-(1H-Imidazol-1-yl)-1-phenylethyl]oxy}-5-oxo-5,6,7,8-tetrahydro-1-naphthalenyl)methyl]sulfanyl}benzoate]
5.3	CNC(=O)c1ccccc1S(=O)(=O)Cc1c(O[C@H](Cn2ccnc2)c2ccccc2)ccc2c1CCCC2=O [Compound 164, 2-{[(2-{[(1S)-2-(1H-Imidazol-1-yl)-1-phenylethyl]oxy}-5-oxo-5,6,7,8-tetrahydro-1-naphthalenyl)methyl]sulfonyl)-N-methylbenzamide]
0.2	CC(O)CNC(=O)c1ccc(SCc2c(O[C@H](Cn3ccnc3)c3ccccc3)ccc3c2CCCC3=O)cc1 (stereo partly drawn) [Compound 256, N-(2-Hydroxypropyl)-4-{[(2-{[(1S)-2-(1H-imidazol-1-yl)-1-phenylethyl]oxy}-5-oxo-5,6,7,8-tetrahydro-1-naphthalenyl)methyl]sulfanyl}benzamide]
11	O=C1CCCc2c1ccc(O[C@H](Cn1ccnc1)c1ccccc1)c2-c1ccc2ccccc2c1 [Compound 23, 6-((1S)-2-Imidazolyl-1-phenylethoxy)-5-(2-naphthyl)-2,3,4-trihydronaphthalen-1-one]
0.26	CC[C@H](CO)NC(=O)c1ccc(S(=O)(=O)Cc2c(O[C@H](Cn3ccnc3)c3ccccc3)ccc3c2CCCC3=O)cc1 [Compound 241, N-[(1R)-1-(Hydroxymethyl)propyl]-4-{[(2-{[(1S)-2-(1H-imidazol-1-yl)-1-phenylethyl]oxy}-5-oxo-5,6,7,8-tetrahydro-1-naphthalenyl)methyl]sulfonyl}benzamide]
0.2	COCCNC(=O)c1ccccc1S(=O)(=O)Cc1c(O[C@H](Cn2ccnc2)c2ccccc2)ccc2c1CCCC2=O [Compound 264, 2-{[(2-{[(1S)-2-(1H-Imidazol-1-yl)-1-phenylethyl]oxy}-5-oxo-5,6,7,8-tetrahydro-1-naphthalenyl)-methyl]sulfonyl}-N-(2-methoxyethyl)benzamide]
3	O=C1CCCc2c1ccc(O[C@H](Cn1ccnc1)c1ccccc1)c2CSc1ccncc1 [Compound 8]
0.2	C[C@H](O)CNC(=O)c1ccc(SCc2c(O[C@H](Cn3ccnc3)c3ccccc3)ccc3c2CCCC3=O)cc1 [Compound 196, N-[(2S)-2-Hydroxypropyl]-4-{[(2-{[(1S)-2-(1H-imidazol-1-yl)-1-phenylethyl]oxy}-5-oxo-5,6,7,8-tetrahydro-1-naphthalenyl)methyl]sulfanyl}benzamide]
10	O=C1CCCc2c1ccc(O[C@H](Cn1ccnc1)c1ccccc1)c2COc1ccc2ncccc2c1 [Compound 107, 6-((1S)-2-Imidazolyl-1-phenylethoxy)-5-(6-quinolyloxymethyl)-2,3,4-trihydronaphthalen-1-one]

IC50 [nM]	Compound
0.85	O=C1CCCc2c1ccc(O[C@H](Cn1ccnc1)c1ccccc1)c2CCc1cccnc1 [Compound 26b, (S)-6-(-2-imidazol-1-yl-phenyl-ethoxy)-5-(2-pyridin-3-yl-ethyl)-3,4-dihydro-2H-naphthalen-1-one]
15	O=C1CCCc2c1ccc(O[C@H](Cn1ccnc1)c1ccccc1)c2CSCc1ccc(Cl)c(Cl)c1 [Compound 153, 5-(3,4-Dichloro-benzylsulfanylmethyl)-6-((1S)-2-imidazol-1-yl-1-phenyl-ethoxy)-3,4-dihydro-2H-naphthalen-1-one]
6.4	O=C(NCCO)c1ccccc1S(=O)(=O)Cc1c(O[C@H](Cn2ccnc2)c2ccccc2)ccc2c1CCCC2=O [Compound 165, N-(2-Hydroxyethyl)-2-{[(2-{[(1S)-2-(1H-imidazol-1-yl)-1-phenylethyl]oxy}-5-oxo-5,6,7,8-tetrahydro-1-naphthalenyl)methyl]sulfonyl}benzamide]
13	6-((1S)-2-Indazolyl-1-phenylethoxy)-5-amino-2,3,4-trihydronaphthalen-1-one [Compound 37]
37	O=C1CCCc2c1ccc(O[C@H](Cn1ccnc1)c1ccccc1)c2Oc1ccccc1 [Compound 46, 6-((1S)-2-imidazolyl-1-phenylethoxy)-5-phenoxy-2,3,4-trihydronaphthalen-1-one]
10	COC(=O)CCc1c(O[C@H](Cn2ccnc2)c2ccccc2)ccc2c1CCCC2=O [Compound 31, Methyl 3-[2-((1S)-2-imidazolyl-1-phenylethoxy)-5-oxo-6,7,8-trihydronaphthyl]propanoate]
0.2	O=C(NC1CC1)c1ccccc1SCc1c(O[C@H](Cn2ccnc2)c2ccccc2)ccc2c1CCCC2=O [Compound 228, N-Cyclopropyl-2-{[(2-{[(1S)-2-(1H-imidazol-1-yl)-1-phenylethyl]oxy}-5-oxo-5,6,7,8-tetrahydro-1-naphthalenyl)methyl]sulfanyl}benzamide]
8	CCCc1c(OC(Cn2ccnc2)c2ccccc2)ccc2c1CCCC2=O (stereo not drawn) [Compound 50, 6-(2-Imidazolyl-1-phenylethoxy)-5-propyl-2,3,4-trihydro-naphthalen-1-one]
4	COC(=O)c1cccc(SCc2c(O[C@H](Cn3ccnc3)c3ccccc3)ccc3c2CCCC3=O)c1 [Compound 158, Methyl 3-{[(2-{[(1S)-2-(1H-Imidazol-1-yl)-1-phenylethyl]oxy}-5-oxo-5,6,7,8-tetrahydro-1-naphthalenyl)methyl]sulfanyl}benzoate]
8	O=C(O)c1ccc(SCc2c(O[C@H](Cn3ccnc3)c3ccccc3)ccc3c2CCCC3=O)cc1 [Compound 162, 4-{[(2-{[(1S)-2-(1H-Imidazol-1-yl)-1-phenylethyl]oxy}-5-oxo-5,6,7,8-tetrahydro-1-naphthalenyl)methyl]sulfanyl}benzoic Acid]
14	CC(C)(C)OC(=O)NCc1c(O[C@H](Cn2ccnc2)c2ccccc2)ccc2c1CCCC2=O [Compound 41, [2-((S)-2-Imidazol-1-yl-1-phenyl-ethoxy)-5-oxo-5,6,7,8-tetrahydro-naphthalen-1-ylmethyl]-carbamic acid tert-butyl ester]
6	CN(C)CCNC(=O)c1ccccc1SCc1c(O[C@H](Cn2ccnc2)c2ccccc2)ccc2c1CCCC2=O [Compound 179, N-[2-(Dimethylamino)ethyl]-2-{[(2-{[(1S)-2-(1H-imidazol-1-yl)-1-phenylethyl]oxy}-5-oxo-5,6,7,8-tetrahydro-1-naphthalenyl)methyl]sulfanyl}benzamide]
3	O=C1CCCc2c1ccc(O[C@H](Cn1ccnc1)c1ccccc1)c2COc1ccccc1F [Compound 101]
3	O=C1CCCc2c1ccc(O[C@H](Cn1ccnc1)c1ccccc1)c2COc1ccc2ncccc2c1 [Compound 108, 6-((1S)-2-Imidazolyl-1-phenylethoxy)-5-(6-quinolyloxymethyl)-2,3,4-trihydronaphthalen-1-one]
13	O=C1CCCc2c1ccc(O[C@H](Cn1ccnc1)c1cccnc1)c2NC(=O)c1cnnc2ccccc12 [Compound 63f, Cinnoline-4-carboxylic acid [2-((S)-2-imidazol-1-yl-1-pyridin-3-yl-ethoxy)-5-oxo-5,6,7,8-tetrahydro-naphthalen-1-yl]-amide]

Compound	IC50 [nM]
O=C1CCCc2c1ccc(O[C@H](Cn1ccnc1)c1ccccc1)c2CCc1ccccc1 [Compound 20]	0.4
O=C1CCCc2c1ccc(O[C@H](Cn1ccnc1)c1ccccc1)c2CS(=O)(=O)c1ccccc1 [Compound 3]	0.3

Reference: patent publication US6943183B2 (Pfizer Inc, priority 2000, dated 2005)
